Read-outs that look alike come from different tables or passages of the source.
Columns and labels:
human GABA A α2β3γ2 [1] = biological target: T1, human GABA A α2β3γ2 (Homo sapiens, UniProt P18507+P47869); assay: [3H]flumazenil competition binding, HEK293 cells expressing human α2β3γ2; parameters: expressed in transfected cells; host or cells: HEK293; conditions: for hKi α2/hKi α5: binding selectivity ratio
human GABA A α5β3γ2 [2] = biological target: T2, human GABA A α5β3γ2 (Homo sapiens, UniProt P18507+P31644); assay: Two-microelectrode voltage clamp, modulation of GABA EC10 response in Xenopus oocytes, α5β3γ2; type: cell-based; parameters: expressed in transfected cells; host or cells: Xenopus laevis oocytes; conditions: % change of submaximal (EC10) response to GABA at 30×Ki
Experimental: (§1) Table 2b. […] Effect at human GABA A α5 receptors: % change of a submaximal (EC10) response to GABA determined at 30×Ki value from the flumazenil binding assay.
(§2) Subtype-selective effects were determined on cloned receptors expressed in Xenopus oocytes. Human recombinant GABA A receptors were expressed in Xenopus laevis oocytes. Current responses were evoked in two-microelectrode voltage-clamp condition by applying an EC10 of GABA before and during the co-application of the test compound. Response amplitudes in the presence of the test compound are expressed as percentage of the amplitudes before drug addition.

human GABA A α3β3γ2 [3] = biological target: T3, human GABA A α3β3γ2 (Homo sapiens, UniProt P18507+P34903); assay: [3H]flumazenil competition binding, HEK293 cells expressing human α3β3γ2; parameters: expressed in transfected cells; host or cells: HEK293; conditions: for hKi α3/hKi α5: binding selectivity ratio
human GABA A α1β2/3γ2 [4] = biological target: T4, human GABA A α1β2/3γ2 (Homo sapiens, UniProt P14867+P18507); assay: [3H]flumazenil competition binding, HEK293 cells expressing human α1β2/3γ2; parameters: expressed in transfected cells; host or cells: HEK293; conditions: for hKi α1/hKi α5: binding selectivity ratio
human GABA A α1β2/3γ2 [5] = biological target: T4, human GABA A α1β2/3γ2; assay: Two-microelectrode voltage clamp, modulation of GABA EC10 response in Xenopus oocytes, α1β2/3γ2; type: cell-based; parameters: expressed in transfected cells; host or cells: Xenopus laevis oocytes; conditions: % change of EC10 GABA response at 3 μM or at 30×Ki if Ki below 0.1 μM
human GABA A α3β3γ2 [6] = biological target: T3, human GABA A α3β3γ2; assay: Two-microelectrode voltage clamp, modulation of GABA EC10 response in Xenopus oocytes, α3β3γ2; type: cell-based; parameters: expressed in transfected cells; host or cells: Xenopus laevis oocytes; conditions: % change of EC10 GABA response at 3 μM or at 30×Ki if Ki below 0.1 μM
Experimental: as §1, §2

human GABA A α2β3γ2 [7] = biological target: T1, human GABA A α2β3γ2; assay: Two-microelectrode voltage clamp, modulation of GABA EC10 response in Xenopus oocytes, α2β3γ2; type: cell-based; parameters: expressed in transfected cells; host or cells: Xenopus laevis oocytes; conditions: % change of EC10 GABA response at 3 μM or at 30×Ki if Ki below 0.1 μM
Experimental: as §1, §2

human GABA A α5β3γ2 [8] = biological target: T2, human GABA A α5β3γ2; assay: [3H]flumazenil competition binding, HEK293 cells expressing human α5β3γ2; parameters: expressed in transfected cells; host or cells: HEK293
[9] = [3H]flumazenil competition, human α1β2/3γ2, read-out: hKi α1
[10] = [3H]flumazenil competition, human α2β3γ2, read-out: hKi α2
[11] = [3H]flumazenil competition, human α3β3γ2, read-out: hKi α3
[12] = [3H]flumazenil competition, human α5β3γ2, read-out: hKi α5

| Compound | hKi α2/hKi α5 (human GABA A α2β3γ2 [1]) | Efficacy GABA A α5β3γ2 (human GABA A α5β3γ2 [2]) [%] | hKi α3/hKi α5 (human GABA A α3β3γ2 [3]) | Ki (human GABA A α1β2/3γ2 [4]) [nM] | hKi α1/hKi α5 (human GABA A α1β2/3γ2 [4]) | Efficacy GABA A α1β2/3γ2 (human GABA A α1β2/3γ2 [5]) | Ki (human GABA A α1β2/3γ2 [4]; [9]) [nM] | Ki (human GABA A α2β3γ2 [1]) [nM] | Efficacy GABA A α3β3γ2 (human GABA A α3β3γ2 [6]) | Ki (human GABA A α3β3γ2 [3]) [nM] | Efficacy GABA A α2β3γ2 (human GABA A α2β3γ2 [7]) | Ki (human GABA A α5β3γ2 [8]) [nM] | Ki (human GABA A α2β3γ2 [1]; [10]) [nM] | Ki (human GABA A α3β3γ2 [3]; [11]) [nM] | Ki (human GABA A α5β3γ2 [8]; [12]) [nM] |
| --- | --- | --- | --- | --- | --- | --- | --- | --- | --- | --- | --- | --- | --- | --- | --- |
| FCc1ncn2c1Cn1ncnc1-c1cc(F)ccc1-2 [Compound 8580, 3-Fluoro-10-fluoromethyl-9H-imidazo[1,5-a][1,2,4]triazolo[1,5-d][1,4]benzodiazepine] | 3 | −35 | 3 | 43.9 | 5 | – | – | – | – | – | – | – | – | – | – |
| N#Cc1ccc2c(c1)-c1ncnn1Cc1c(C(F)F)ncn1-2 [Compound 8582, 3-Cyano-10-difluoromethyl-9H-imidazo[1,5-a][1,2,4]triazolo[1,5-d][1,4]benzodiazepine] | 15 | −37 | 6 | – | 16 | −21% | 256 | – | – | – | – | – | – | – | – |
| FC(F)c1ncn2c1Cn1ncnc1-c1ccccc1-2 [Compound 8583, 10-Difluoromethyl-9H-imidazo[1,5-a][1,2,4]triazolo[1,5-d][1,4]benzodiazepine] | 9 | – | 7 | – | 18 | – | – | – | – | – | – | – | – | – | – |
| Cc1nc2n(n1)Cc1c(CF)ncn1-c1ccc(Cl)cc1-2 [Compound 8584, 3-Chloro-10-fluoromethyl-6-methyl-9H-imidazo[1,5-a][1,2,4]triazolo[1,5-d][1,4]benzodiazepine] | 72 | – | 47 | – | 50 | – | 125 | – | – | – | – | – | – | – | – |
| Clc1ncn2c1Cn1ncnc1-c1ccccc1-2 [Compound 8585, 10-Chloro-9H-imidazo[1,5-a][1,2,4]triazolo[1,5-d][1,4]benzodiazepine] | 5 | −41 | 2 | – | 14 | −37% | – | – | – | – | – | – | – | – | – |
| Clc1ccc2c(c1)-c1ncnn1Cc1c(Cl)ncn1-2 [Compound 8586, 3,10-Dichloro-9H-imidazo[1,5-a][1,2,4]triazolo[1,5-d][1,4]benzodiazepine] | 12 | −33 | 7 | 15.3 | 7 | −5% | – | 23.7 | +7% | 14 | +2% | 2.1 | – | – | – |
| Cc1nc2n(n1)Cc1c(Cl)ncn1-c1ccc(C#N)cc1-2 [Compound 8587, 10-Chloro-3-cyano-6-methyl-9H-imidazo[1,5-a][1,2,4]triazolo[1,5-d][1,4]benzodiazepine] | 13 | −42 | 10 | – | 23 | −28% | 250 | – | – | – | – | 10.9 | 141 | 106 | – |
| FC(F)c1ccc2c(c1)-c1ncnn1Cc1c(Cl)ncn1-2 [Compound 8588, 10-Chloro-3-difluoromethyl-9H-imidazo[1,5-a][1,2,4]triazolo[1,5-d][1,4]benzodiazepine] | 37 | – | 15 | – | 19 | – | – | – | – | – | – | – | – | – | – |
| Cc1nc2n(n1)Cc1c(Cl)ncn1-c1ccc(Br)cc1-2 [Compound 8589, 3-Bromo-10-chloro-6-methyl-9H-imidazo[1,5-a][1,2,4]triazolo[1,5-d][1,4]benzodiazepine] | 37 | – | 35 | 226 | 37 | – | – | 229 | – | 216 | – | 6.1 | – | – | – |
| Fc1ccc2c(c1)-c1ncnn1Cc1c(Br)ncn1-2 [Compound 8590, 10-Bromo-3-fluoro-9H-imidazo[1,5-a][1,2,4]triazolo[1,5-d][1,4]benzodiazepine] | 7 | – | 8 | – | 4 | – | – | – | – | – | – | – | – | – | – |
| Cc1ncn2c1Cn1nc(CN3CCCC3=O)nc1-c1cc(Br)ccc1-2 [Compound 8591, 3-Bromo-10-methyl-6-(2-oxo-pyrrolidin-1-ylmethyl)-9H-imidazo[1,5-a][1,2,4]triazolo[1,5-d][1,4]benzodiazepine] | 94 | −31 | 73 | – | 88 | +4% | 624 | – | +23% | – | −7% | 7.1 | 669 | 515 | – |
| Cc1onc(-c2ccccc2)c1COc1ccc(C(=O)NC(C)C)cn1 [Compound O1, N-Isopropyl-6-(5-methyl-3-phenyl-isoxazol-4-ylmethoxy)-nicotinamide] | 77 | −50 | 85 | – | 388 | −19% | 504 | – | −43% | – | −34% | – | 101 | 110 | 1.3 |
| Cc1onc(-c2ccccc2)c1COc1ccc(C(=O)N2CCn3cnnc3C2)cn1 [Compound P1, (5,6-Dihydro-8H-[1,2,4]triazolo[4,3-a]pyrazin-7-yl)-[6-(5-methyl-3-phenyl-isoxazol-4-ylmethoxy)-pyridin-3-yl]-methanone] | – | – | – | – | – | – | – | – | – | – | – | – | – | – | 29.9 |
| Cc1onc(-c2ccccc2)c1COc1ccc(C(=O)N2CC3(COC3)C2)cn1 [Compound Q1, [6-(5-Methyl-3-phenyl-isoxazol-4-ylmethoxy)-pyridin-3-yl]-(2-oxa-6-aza-spiro[3.3]hept-6-yl)-methanone] | 29 | −35 | 26 | – | 42 | −11% | 633 | – | −17% | – | −18% | – | 438 | 400 | 15.1 |
| Cc1onc(-c2ccc(Cl)cc2)c1COc1ccc(C(=O)N2CCOCC2)cn1 [Compound S1, {6-[3-(4-Chloro-phenyl)-5-methyl-isoxazol-4-ylmethoxy]-pyridin-3-yl}-morpholin-4-yl-methanone] | 39 | – | 41 | – | 102 | – | 551 | – | – | – | – | – | 209 | 220 | 5.4 |
| Cc1onc(-c2ccccn2)c1COc1ccc(C(=O)N2CCOCC2)cn1 [Compound T1, [6-(5-Methyl-3-pyridin-2-yl-isoxazol-4-ylmethoxy)-pyridin-3-yl]-morpholin-4-yl-methanone] | 20 | −31 | 27 | – | 32 | −3% | 468 | – | +9% | – | +5% | – | 293 | 387 | 14.6 |
| Cc1onc(-c2ccc(F)cn2)c1COc1ccc(C(=O)NC(C)C)cn1 [Compound U1] | – | −33 | – | – | – | −15% | – | – | −21% | – | −34% | – | – | – | – |
| Cc1onc(-c2ccc(F)cn2)c1COc1ccc(C(=O)N2CCS(=O)(=O)CC2)cn1 [Compound V1, (1,1-Dioxo-1λ,6-thiomorpholin-4-yl)-{6-[3-(5-fluoro-pyridin-2-yl)-5-methyl-isoxazol-4-ylmethoxy]-pyridin-3-yl}-methanone] | 44 | −33 | 63 | – | 119 | 0% | 143 | – | +16% | – | +9% | – | 53.3 | 76.1 | 1.2 |
| Cc1onc(-c2ccc(Cl)cn2)c1COc1ccc(C(=O)N2CCSCC2)cn1 [Compound W1, {6-[3-(5-Chloro-pyridin-2-yl)-5-methyl-isoxazol-4-ylmethoxy]-pyridin-3-yl}-thiomorpholin-4-yl-methanone] | 27 | – | 44 | – | 87 | – | 34.6 | – | – | – | – | – | 10.7 | 17.7 | 0.4 |

— patent US8835425B2, “Use of selective GABA A α5 negative allosteric modulators for the treatment of central nervous system conditions” (Hoffmann-La Roche Inc., priority 2010, dated 2014)
